In patent publication US20050070511A1, “2-methylene-19-nor-vitamin D2 compounds” (Wisconsin Alumni Research Foundation, priority 2003, published 2005):
One block for each compound: values may come before it.

Experiments:
[1] = tested on: Male, weanling Sprague-Dawley rats; test: Intestinal calcium transport in vitamin D-deficient rats; assay type: in vivo, rat; conditions: for Intestinal Calcium Transport (S/M): rats on low Ca diet, i.p. daily, average ± SE from 5 animals; for Activity in stimulating intestinal calcium transport compared with 1α,25-dihydroxyvitamin D3: FIG. 3, in words
Protocol: (§1) Male, weanling Sprague-Dawley rats were placed on Diet 11 (0.47% Ca)+AEK for 11 days, followed by Diet 11 (0.02% Ca)+AEK for 31 days. Dosing (i.p.) began 7 days prior to sacrifice. Doses were given on a daily basis, 24 hours apart. The first 10 cm of the intestine was collected for gut transport studies and serum was collected for bone Ca mobilization analysis. The results are reported in TABLE 1 and illustrated in the graph of FIGS. 3 and 4.

[2] = tested on: Male, weanling Sprague-Dawley rats; test: Serum calcium (bone calcium mobilization) in vitamin D-deficient rats; assay type: in vivo, rat; conditions: for Serum Calcium (bone calcium mobilization): rats on low Ca diet, i.p. daily, average ± SE from 5 animals; for Mobilization of calcium from bone compared with 1α,25-dihydroxyvitamin D3: FIG. 4, in words
Protocol: as §1
The in vivo tests of serum calcium of rats on a zero calcium diet provides an insight into […] or bone activity of the 2-methylene-24(S) and 24(R) derivatives of 19-nor-1α,25-dihydroxyvitamin D2. […] At the same time, the activity of the 2-methylene-24(S) and 24(R) derivatives of 19-nor-1α,25-dihydroxyvitamin D2 on intestinal calcium transport is approximately equal to that of 1,25-(OH)2D3 (FIG. 3).

HL-60 cells = test: Differentiation of HL-60 promyelocytes into monocytes; assay type: cell-based; conditions: FIG. 2, in words
Protocol: FIG. 2 is a graph illustrating the percent HL-60 cell differentiation as a function of the concentration of 2-methylene-19-nor-24(S)-20(R)-1α,25-dihydroxyvitamin D2, 2-methylene-19-nor-24(R)-20(R)-1α,25-dihydroxyvitamin D2, and 1α,25-dihydroxyvitamin D3.
The differentiation of HL-60 promyelocytic into monocytes was determined as described by Ostrem et al. (J. Biol. Chem. 262, 14164-14171, 1987).

[3] = target: T1, vitamin D pig intestinal nuclear receptor (Sus scrofa, UniProt A3RGC1); test: Competitive binding of [3H]-1α,25-(OH)2-D3 to the porcine intestinal vitamin D receptor; conditions: FIG. 1, in words
T1 construct: the vitamin D pig intestinal nuclear receptor; from tissue; host or cells: pig intestine (nuclear receptor preparation)
T1 sequence (A3RGC1 1-427): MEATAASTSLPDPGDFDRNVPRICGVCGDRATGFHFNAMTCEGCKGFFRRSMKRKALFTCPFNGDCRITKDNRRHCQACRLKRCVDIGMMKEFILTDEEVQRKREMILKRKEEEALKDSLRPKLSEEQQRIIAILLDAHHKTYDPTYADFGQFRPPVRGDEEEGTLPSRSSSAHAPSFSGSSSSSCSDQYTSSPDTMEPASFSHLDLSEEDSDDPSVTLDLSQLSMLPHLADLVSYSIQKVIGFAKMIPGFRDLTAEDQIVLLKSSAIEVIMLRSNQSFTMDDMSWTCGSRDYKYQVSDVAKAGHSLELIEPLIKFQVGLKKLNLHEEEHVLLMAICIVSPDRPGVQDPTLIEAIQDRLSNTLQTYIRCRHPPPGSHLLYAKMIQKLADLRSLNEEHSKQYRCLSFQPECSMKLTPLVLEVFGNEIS
Protocol: FIG. 1 is a graph illustrating the relative activity of 2-methylene-19-nor-24(S)-20(R)-1α,25-dihydroxyvitamin D2, 2-methylene-19-nor-24(R)-20(R)-1α,25-dihydroxyvitamin D2 and 1α,25-dihydroxyvitamin D3 to compete for binding of [^3H]-1α,25-(OH)2-D3 to the vitamin D pig intestinal nuclear receptor.
Competitive binding of the analogs to the porcine intestinal receptor was carried out by the method described by Dame et al. (Biochemistry 25, 4523-4534, 1986).

SMILES: C=C1/C(=C\C=C2/CCC[C@]3(C)[C@@H]([C@H](C)CCCC(C)(C)O)CC[C@@H]23)C[C@@H](O)C[C@@H]1O [1,25-(OH)2D3, 1α,25-dihydroxyvitamin D3, reference compound]
Intestinal Calcium Transport (S/M) ([1]; 260 pmol/day/7 days): 12.54 ± 1.83 S/M
Serum Calcium (bone calcium mobilization) ([2]; 260 pmol/day/7 days): 5.72 ± 0.14 mg/100 mL

Binding to the vitamin D receptor compared with 1,25(OH)2D3 [3]: more active than 1,25(OH)2D3
SMILES: C=C1[C@H](O)CC(=C/C=C2\CCC[C@@]3(C)C2CCC3[C@H](C)/C=C/[C@@H](C)C(C)(C)O)C[C@H]1O (stereo partly drawn) [(20R,24R)D2, (20R,24R)-1α,25-dihydroxy-2-methylene-19-nor-vitamin D2]
Activity in stimulating intestinal calcium transport compared with 1α,25-dihydroxyvitamin D3 [1]: activity about the same as that of 1α,25-dihydroxyvitamin D3
Intestinal Calcium Transport (S/M) ([1]; 130 pmol/day/7 days): 12.2 ± 1.22 S/M
Intestinal Calcium Transport (S/M) ([1]; 260 pmol/day/7 days): 11.58 ± 0.66 S/M
HL-60 differentiation potency compared with 1,25(OH)2D3 (HL-60 cells): significantly more potent than 1,25(OH)2D3
Mobilization of calcium from bone compared with 1α,25-dihydroxyvitamin D3 [2]: minimal activity on bone
Serum Calcium (bone calcium mobilization) ([2]; 130 pmol/day/7 days): 4.5 ± 0.05 mg/100 mL
Serum Calcium (bone calcium mobilization) ([2]; 260 pmol/day/7 days): 5.02 ± 0.14 mg/100 mL

Binding to the vitamin D receptor compared with 1,25(OH)2D3 [3]: more active than 1,25(OH)2D3
SMILES: C=C1[C@H](O)CC(=C/C=C2\CCC[C@@]3(C)C2CCC3[C@H](C)/C=C/[C@H](C)C(C)(C)O)C[C@H]1O (stereo partly drawn) [(20R,24S)D2, (20R,24S)-1α,25-dihydroxy-2-methylene-19-nor-vitamin D2]
Activity in stimulating intestinal calcium transport compared with 1α,25-dihydroxyvitamin D3 [1]: activity about the same as that of 1α,25-dihydroxyvitamin D3
Intestinal Calcium Transport (S/M) ([1]; 130 pmol/day/7 days): 11.62 ± 0.69 S/M
Intestinal Calcium Transport (S/M) ([1]; 260 pmol/day/7 days): 11.14 ± 0.74 S/M
HL-60 differentiation potency compared with 1,25(OH)2D3 (HL-60 cells): significantly more potent than 1,25(OH)2D3
Mobilization of calcium from bone compared with 1α,25-dihydroxyvitamin D3 [2]: minimal activity on bone
Serum Calcium (bone calcium mobilization) ([2]; 130 pmol/day/7 days): 4.7 ± 0.13 mg/100 mL
Serum Calcium (bone calcium mobilization) ([2]; 260 pmol/day/7 days): 5.04 ± 0.14 mg/100 mL
